# In US20070036793A1, “Methods for use of an lkb1/strad7mo25 complex” (priority 2003, published 2007):
# Experiments:
# AMPKα1 = molecular target: T1, AMPKα1 (Mus musculus, UniProt Q5EG47); experiment: AMPK activity and Thr172 phosphorylation in LKB1+/+ MEFs after drug stimulation; assay type: cell-based; details: 1 h
# T1 construct: AMPKα1 and AMPK-related kinases were immunoprecipitated from the cell lysates; endogenous in cells; host or cells: immortalised LKB1+/+ MEFs
# Protocol: FIG. 27 Activity of AMPK-related kinases in LKB1+/+ and LKB1^−/− MEFs. LKB1^+/+ or LKB1^−/− MEFs were either left untreated (black bars) or stimulated with 10 mM phenformin (Phen, white bars) for 1 h. AMPKα1 and AMPK-related kinases were immunoprecipitated from the cell lysates, and in vitro kinase activity towards the AMARA peptide was measured as described in Materials and Methods (Example 4). To confirm equal expression of the kinases in each sample, cell lysates (AMPKα1, NUAK2, MARK2/3 and MARK4) or immunoprecipitated proteins (QIK, QSK, SIK and MARK1) were subjected to SDS-PAGE and western blot analysis. All AMPK-related kinases migrated with the expected molecular mass. In the case of AMPKα1, cell lysates were immunoblotted with a phospho Thr172 antibody (P-AMPK), that recognises the phosphorylated T-loop. A control immunoblot of LKB1 levels in cell lysates is also included in panel B. Results shown are average + SD of 2-4 assays and are representative of at least two independent experiments.
# (§1) FIG. 28. […] (A) LKB1^+/+ MEFs were either left untreated or stimulated with the indicated concentrations of phenformin (Phen) for 1 h. AMPKα1/a2 and LKB1 were immunoprecipitated from the cell lysates, and in vitro kinase activity towards the AMARA and LKBtide peptides respectively, were measured as described in Materials and Methods (Example 4). (B) To confirm equal expression of the kinases in each sample, cell lysates were subjected to SDS-PAGE and western blot analysis with the indicated antibodies. The phospho pT172 antibody (P-AMPK) recognises the phosphorylated T-loop of AMPKα1. Results are shown as the average ± SD for a triplicate assay and are representative of two independent experiments. […] AMPKα1 and the indicated AMPK-related kinases were immunoprecipitated from the cell lysates, and in vitro kinase activity towards the AMARA peptide measured as described in Materials and Methods. […]
# Cell culture, stimulation and cell lysis. […] Protein concentrations were determined by the Bradford method with bovine serum albumin as the standard (Bradford, 1976). […]
# LKB1 = molecular target: T2, LKB1 (Mus musculus, UniProt Q9WTK7); experiment: Activity of endogenous LKB1 immunoprecipitated from LKB1+/+ MEFs, LKBtide substrate; assay type: cell-based; details: 1 h
# T2 construct: AMPKα1/a2 and LKB1 were immunoprecipitated from the cell lysates; endogenous in cells; host or cells: LKB1+/+ MEFs
# Protocol: as §1, with “AMPKα1.” for “AMPKα1. Results are shown as the average ± SD for a triplicate assay and are representative of two independent experiments.”
# Cell culture, stimulation and cell lysis. […] Protein concentrations were determined by the Bradford method with bovine serum albumin as the standard (Bradford, 1976).
# 0.1-1 mg Hela or MEF cell lysate protein was incubated at 4° C. for 1 h on a shaking platform with 5 μl of protein G-Sepharose conjugated to 5 μg of human LKB1 antibody. […] The p81 membranes were washed in phosphoric acid, and the incorporated radioactivity was measured by scintillation counting as described previously for MAP kinase (Alessi et al., 1995).
# T1 sequence (Q5EG47 whole entry): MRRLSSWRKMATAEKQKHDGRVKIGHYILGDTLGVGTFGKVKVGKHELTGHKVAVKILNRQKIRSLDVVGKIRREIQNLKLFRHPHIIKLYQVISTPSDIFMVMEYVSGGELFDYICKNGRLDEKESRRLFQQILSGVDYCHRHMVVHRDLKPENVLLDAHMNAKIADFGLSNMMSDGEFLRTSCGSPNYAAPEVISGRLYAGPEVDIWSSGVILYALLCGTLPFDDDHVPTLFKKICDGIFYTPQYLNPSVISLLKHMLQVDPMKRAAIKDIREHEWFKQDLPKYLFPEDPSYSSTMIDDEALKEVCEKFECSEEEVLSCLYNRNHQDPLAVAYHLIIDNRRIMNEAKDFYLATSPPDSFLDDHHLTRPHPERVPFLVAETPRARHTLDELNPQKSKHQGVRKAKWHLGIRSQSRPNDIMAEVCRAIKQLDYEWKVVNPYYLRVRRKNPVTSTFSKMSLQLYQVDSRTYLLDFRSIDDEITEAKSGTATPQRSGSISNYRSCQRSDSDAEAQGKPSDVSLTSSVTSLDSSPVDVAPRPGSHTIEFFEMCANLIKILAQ
# T1 sequence (Q9R078 2-270 partner limits assumed): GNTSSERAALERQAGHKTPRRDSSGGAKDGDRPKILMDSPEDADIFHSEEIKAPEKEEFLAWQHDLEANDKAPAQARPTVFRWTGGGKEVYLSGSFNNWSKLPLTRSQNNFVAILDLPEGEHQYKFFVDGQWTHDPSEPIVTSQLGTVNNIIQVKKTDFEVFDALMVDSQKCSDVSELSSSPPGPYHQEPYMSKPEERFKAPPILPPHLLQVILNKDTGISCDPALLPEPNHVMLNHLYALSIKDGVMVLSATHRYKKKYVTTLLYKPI
# T1 sequence (O54950 whole entry partner): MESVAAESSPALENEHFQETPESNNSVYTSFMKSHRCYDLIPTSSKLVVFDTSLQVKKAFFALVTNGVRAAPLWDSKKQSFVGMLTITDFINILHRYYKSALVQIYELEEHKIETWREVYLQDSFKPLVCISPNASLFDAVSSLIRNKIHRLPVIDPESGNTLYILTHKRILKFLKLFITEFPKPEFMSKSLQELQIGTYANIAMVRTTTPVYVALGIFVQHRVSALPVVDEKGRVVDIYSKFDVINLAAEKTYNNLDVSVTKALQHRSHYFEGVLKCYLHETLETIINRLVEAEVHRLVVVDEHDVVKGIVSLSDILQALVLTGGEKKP
# T2 sequence (Q9WTK7 1-433 limits assumed): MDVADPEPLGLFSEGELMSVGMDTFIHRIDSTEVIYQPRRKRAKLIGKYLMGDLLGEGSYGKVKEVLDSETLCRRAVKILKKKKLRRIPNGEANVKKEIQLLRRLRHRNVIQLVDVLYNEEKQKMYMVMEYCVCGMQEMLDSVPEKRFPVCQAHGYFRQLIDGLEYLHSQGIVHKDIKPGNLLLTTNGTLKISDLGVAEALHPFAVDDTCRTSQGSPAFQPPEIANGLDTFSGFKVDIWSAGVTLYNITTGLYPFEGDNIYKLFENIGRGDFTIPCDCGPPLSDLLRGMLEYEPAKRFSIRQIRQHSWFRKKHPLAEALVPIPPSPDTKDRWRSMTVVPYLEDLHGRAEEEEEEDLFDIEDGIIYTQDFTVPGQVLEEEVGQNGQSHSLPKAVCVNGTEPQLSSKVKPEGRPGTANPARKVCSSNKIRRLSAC
# T2 sequence (Q3UUJ4 whole entry partner): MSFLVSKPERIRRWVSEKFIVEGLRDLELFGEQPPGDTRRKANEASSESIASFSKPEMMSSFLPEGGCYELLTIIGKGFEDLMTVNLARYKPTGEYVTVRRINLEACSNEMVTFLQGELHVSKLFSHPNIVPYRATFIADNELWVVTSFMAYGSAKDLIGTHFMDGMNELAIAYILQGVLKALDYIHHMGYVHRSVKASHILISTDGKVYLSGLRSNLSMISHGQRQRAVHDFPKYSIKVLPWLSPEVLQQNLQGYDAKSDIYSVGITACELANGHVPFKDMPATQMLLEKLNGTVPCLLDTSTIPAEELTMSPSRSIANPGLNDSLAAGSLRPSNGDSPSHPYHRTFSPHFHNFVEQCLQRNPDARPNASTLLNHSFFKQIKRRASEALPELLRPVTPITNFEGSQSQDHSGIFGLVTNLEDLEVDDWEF
# T2 sequence (Q06138 whole entry partner): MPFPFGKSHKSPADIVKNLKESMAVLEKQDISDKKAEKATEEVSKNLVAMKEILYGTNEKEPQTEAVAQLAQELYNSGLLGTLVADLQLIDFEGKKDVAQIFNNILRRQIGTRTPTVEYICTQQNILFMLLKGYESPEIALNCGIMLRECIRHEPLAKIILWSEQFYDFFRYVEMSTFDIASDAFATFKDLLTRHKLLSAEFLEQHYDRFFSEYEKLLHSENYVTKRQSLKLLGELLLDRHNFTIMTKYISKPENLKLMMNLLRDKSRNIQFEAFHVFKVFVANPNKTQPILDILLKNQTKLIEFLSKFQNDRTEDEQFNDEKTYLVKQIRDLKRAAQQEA
SMILES,activation of AMPK (AMPKα1; 2 mM AICA riboside),LKB1 activity (LKB1),activation of AMPK (AMPKα1; increasing doses of phenformin),phosphorylation of Thr172 of AMPK (AMPKα1; increasing doses of phenformin)
"NC(=O)c1ncn([C@@H]2O[C@H](CO)[C@@H](O)[C@H]2O)c1N [AICA riboside, 5-aminoimidazole-4-carboxamide (AICA) riboside]",activated AMPK,do not activate LKB1 directly,–,–
[H]/N=C(/N)N/C(=N/[H])NCCc1ccccc1 [phenformin],–,did not stimulate LKB1 activity,progressively activated AMPK,increased the phosphorylation of Thr172
